Results on 25 compounds are retold here after ChEMBL document CHEMBL5244247, “Natural and synthetic coumarins as antileishmanial agents: A review” (Eur J Med Chem, 2020).

Experiment [1] deals with Leishmania major. The experiment in a line: Antileishmanial activity against promastigote form of Leishmania major. The experiment is classed as functional, organism-based.
Experiment [2] deals with Leishmania major. The experiment in a line: Antileishmanial activity against promastigote form of Leishmania major assessed as inhibition at 100 uM incubated for 72 hrs by MTT assay relative to control. The experiment is classed as functional. A general note: Tetrazolium dyes change colour on reduction, which living cells bring about.
Experiment [3] deals with Leishmania amazonensis. Briefly: Antileishmanial activity against promastigote form of Leishmania amazonensis assessed as parasite growth inhibition incubated for 72 hrs by regression analysis. It is filed as functional, organism-based.
The subject of experiment [4] is Leishmania major. The experiment in a line: Antileishmanial activity against promastigote form of Leishmania major assessed as inhibition of parasite growth by Litchfield-Wilcoxon method. The experiment is classed as functional, organism-based.
Experiment [5] has as its system Leishmania donovani. Briefly: Antileishmanial activity against promastigote form of Leishmania donovani. The experiment is classed as functional, organism-based.
Experiment [6] has as its system Leishmania donovani. Briefly: Antileishmanial activity against amastigote form of Leishmania donovani. The experiment is classed as functional, organism-based.
The test system of experiment [7] is Leishmania donovani. The experiment in a line: Antileishmanial activity against amastigote form of Leishmania donovani at 50 uM assessed as inhibition of parasite growth relative to control. It is filed as functional.
The test system of experiment [8] is Leishmania amazonensis. The experiment in a line: Antileishmanial activity against promastigote form of Leishmania amazonensis. The experiment is classed as functional, organism-based.
The subject of experiment [9] is Leishmania infantum. Briefly: Antileishmanial activity against promastigote form of Leishmania infantum. The experiment is classed as functional, organism-based.
Experiment [10] deals with Leishmania braziliensis. The experiment in a line: Antileishmanial activity against promastigote form of Leishmania braziliensis. The experiment is classed as functional, organism-based. The settings on record: Leishmania braziliensis.
Experiment [11] deals with Leishmania amazonensis. The experiment in a line: Antileishmanial activity against amastigote form of Leishmania amazonensis assessed as parasite growth inhibition. The experiment is classed as functional, organism-based.
Experiment [12] concerns Leishmania amazonensis. The experiment in a line: Antileishmanial activity against intracellular Leishmania amazonensis MHOM/BR/75/Josefa amastigotes infected in BALB/c mouse peritoneal macrophages assessed as parasite growth inhibition incubated for 24 hrs by regression analysis. The settings on record: Peritoneal macrophage. It is filed as functional, organism-based.
Experiment [13] relates to Leishmania major. The experiment in a line: Antileishmanial activity against amastigote form of Leishmania major. It is filed as functional, organism-based.
Experiment [14] relates to Leishmania amazonensis. The experiment in a line: Antileishmanial activity against promastigote form of Leishmania amazonensis assessed as parasite growth inhibition incubated for 72 hrs by neubauer counting chamber analysis. The experiment is classed as functional, organism-based.
The test system of experiment [15] is Leishmania amazonensis. Briefly: Antileishmanial activity against promastigote form of Leishmania amazonensis assessed as inhibition of parasite growth at 100 uM incubated for 72 hrs by neubauer counting chamber analysis relative to control. It is filed as functional.
The subject of experiment [16] is Leishmania major. Briefly: Antileishmanial activity against promastigote form of Leishmania major assessed as inhibition of parasite growth by MTT colorimetric cell viability assay. It is filed as functional, organism-based.
Experiment [17] concerns Leishmania panamensis. Briefly: Antileishmanial activity against intracellular Leishmania panamensis amastigotes infected in human U-937 cells assessed as inhibition at 20 ug/mL incubated for 72 hrs by flow cytometry relative to control. The experiment is classed as functional.
The test system of experiment [18] is Leishmania amazonensis. Briefly: Antileishmanial activity against Leishmania amazonensis infected in BALB/c mouse assessed as reduction in parasite load at 10 mg/kg, sc administered for 14 days relative to control. It is filed as functional. Also noted: scale not given: the % may be the effect or the level left. As to conditions: time 14 day.
Experiment [19] deals with Leishmania major. The experiment in a line: Antileishmanial activity against promastigote form of Leishmania major assessed as inhibition at 0.1 uM incubated for 72 hrs by MTT assay relative to control. The experiment is classed as functional.
Experiment [20] has as its system Leishmania infantum. Briefly: Antileishmanial activity against amastigote form of Leishmania infantum. The experiment is classed as functional, organism-based.
Experiment [21] relates to Peritoneal macrophage. Briefly: Cytotoxicity against mouse peritoneal macrophage. It is filed as functional, cell-based.
For experiment [22], the system named is Leishmania mexicana. The experiment in a line: Antileishmanial activity against promastigote form of Leishmania mexicana. The experiment is classed as functional, organism-based.
Experiment [23] deals with Leishmania chagasi. Briefly: Antileishmanial activity against promastigote form of Leishmania chagasi. The experiment is classed as functional, organism-based.
Experiment [24] concerns the target Acetylcholinesterase (Homo sapiens) (UniProt P22303). Briefly: Inhibition of AChE (unknown origin) assessed as inhibition zone by Ellman's colorimetric method. (In general: DTNB colorimetry detects thiols as they appear.)
Experiment [25] has as its system Leishmania major. The experiment in a line: Antiproliferative activity against promastigote form of Leishmania major assessed as lethal dose. The experiment is classed as functional. The settings on record: read-out: LD50 (the source's name).
Experiment [26] concerns Leishmania major. Briefly: Antileishmanial activity against promastigote form of Leishmania major assessed as inhibition incubated for 72 hrs by MTT assay. It is filed as functional, organism-based.

≈ marks a conversion by molar mass, not a printed value.

Acetylcholinesterase (Homo sapiens), sequence (P22303 whole entry): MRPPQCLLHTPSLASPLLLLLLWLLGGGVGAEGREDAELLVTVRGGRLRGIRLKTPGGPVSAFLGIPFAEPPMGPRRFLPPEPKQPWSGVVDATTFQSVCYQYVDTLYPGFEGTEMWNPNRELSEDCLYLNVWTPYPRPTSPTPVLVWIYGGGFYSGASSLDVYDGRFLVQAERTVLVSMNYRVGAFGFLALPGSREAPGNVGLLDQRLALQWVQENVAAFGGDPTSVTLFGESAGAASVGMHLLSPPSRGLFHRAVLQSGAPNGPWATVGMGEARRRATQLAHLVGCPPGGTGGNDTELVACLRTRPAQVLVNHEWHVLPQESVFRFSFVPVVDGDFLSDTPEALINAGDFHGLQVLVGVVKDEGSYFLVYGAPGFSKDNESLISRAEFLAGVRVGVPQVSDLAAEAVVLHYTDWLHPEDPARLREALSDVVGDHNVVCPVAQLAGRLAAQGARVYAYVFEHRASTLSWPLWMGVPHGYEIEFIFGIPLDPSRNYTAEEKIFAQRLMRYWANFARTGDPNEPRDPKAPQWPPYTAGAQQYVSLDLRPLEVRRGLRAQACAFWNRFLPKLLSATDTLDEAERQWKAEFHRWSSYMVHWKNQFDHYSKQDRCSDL

Regarding `C=C1C=C[C@H]2C(C)(C)C(=O)CC[C@]2(C)[C@@H]1COc1ccc2ccc(=O)oc2c1`, the IC50 (in general, the concentration that inhibits the measured activity by half) in experiment [1] is 43.8 mg/L (≈ 116 µM).
For the compound `C[C@@H]1[C@H](O)[C@@H](C)/C=C/C=C/C=C/C=C/C=C/C=C/C=C/[C@H](O[C@@H]2O[C@H](C)[C@@H](O)[C@H](N)[C@@H]2O)C[C@@H]2O[C@](O)(C[C@@H](O)C[C@@H](O)[C@H](O)CC[C@@H](O)C[C@@H](O)CC(=O)O[C@H]1C)C[C@H](O)[C@H]2C(=O)O` [AMPHOTERICIN B], the inhibition (in general, the share of the control response that was lost under treatment) at 100 µM in experiment [2] came to 79.8%.
Consider `CCCc1cc(=O)oc2c(C(=O)C(C)CC)c(O)c(CC=C(C)C)c(O)c12` (stereo not given), for which the IC50 in [3] stood at 30.1 µM.
Turning to `CC(C)=C1CC[C@H](C)[C@](C)(COc2ccc3ccc(=O)oc3c2)[C@H]1CCC(=O)O` [GALBANIC ACID], the IC50 in [4] was 165 µM.
As to `COc1cc(O[C@@H]2O[C@H](CO)[C@@H](O)[C@H](O)[C@H]2O)c2c(-c3ccc(O)c(O)c3)cc(=O)oc2c1`, the IC50 in [5] is 28.9 µM; in [6] it was over 90 µM.
Regarding `N#CCC1=NN=C(c2cc3ccccc3oc2=O)C(CC(=O)c2ccccc2)O1` (stereo not given), the inhibition at 50 µM in experiment [7] was 36%.
Regarding `COc1cc2ccc(=O)oc2cc1O` [SCOPOLETIN], the IC50 in experiment [8], in experiment [9] and in [10] was over 50 µM each time.
Take `N#CCC1=NN=C(c2cc3ccccc3oc2=O)C(CC(=O)c2ccc(Cl)cc2)O1` (stereo not given): in experiment [6], the IC50 is 14.2 µM. In addition, the inhibition at 50 µM in [7] amounted to 95%.
Turning to `COC(=O)C1=C(N)Oc2cc(O)c3c(C)cc(=O)oc3c2C1c1ccc(Cl)cc1` (stereo not given), in experiment [11], the half-inhibitory concentration (IC50) is 38.4 µM.
Regarding `CCC(C)C(=O)c1c(O)c(CC=C(C)C)c(OC)c2c(-c3ccccc3)cc(=O)oc12` (stereo not given), the results for the IC50 in experiment [3] and in experiment [12] were 2.4 µM and 34 µM, respectively.
The compound `COc1ccc2ccc(=O)oc2c1CC=C(C)C` [OSTHOLE] registered an IC50 in experiment [13] of 14.9 mg/L (≈ 61.2 µM).
On to `COc1cc(OC)c2ccc(=O)oc2c1OC`, for which the IC50 in [14] turned out to be 57.7 µM. Further, in experiment [15], the inhibition at 100 µM came out at 91%.
Take `C=C(C)C(CC/C(C)=C/COc1cc(O)cc2oc(=O)ccc12)OO` (stereo not given): the IC50 in experiment [16] came out at 20.2 µM.
Take `Cc1cc(=O)oc2cc(OCCCOc3cc(Cl)ccc3Oc3ccc(Cl)cc3Cl)ccc12`: the inhibition at 20 µg/mL in experiment [17] stood at 34%.
`C=CC(C)(C)c1cc2cc3c(cc2oc1=O)OC(C)(C)[C@@H](O)C3`: the IC50 in experiment [8] was 35.8 µM; in [9] it was 27.5 µM; in [10], 32.1 µM. In experiment [18], the Activity was 95.6%.
As for `Cc1cccc(-n2c(-c3cc4ccccc4oc3=O)cs/c2=N/NC(=O)c2cc3ccccc3oc2=O)c1`, the inhibition at 100 µM in [2] is 62.7%. Further, the inhibition at 0.1 µM in experiment [19] worked out at 53.7%.
In experiment [1], `CC1=CC[C@H]2[C@@H](CC[C@@H](O)C2(C)C)[C@]1(C)COc1ccc2ccc(=O)oc2c1` registered an IC50 of 46.8 mg/L (≈ 122 µM).
On to `CC1(O)CC(CC(C)(O)C(O)COc2ccc3ccc(=O)oc3c2O)OC1=O` (stereo not given), for which the IC50 in experiment [16] was over 100 µM.
Take `Cc1cccc(-n2c(-c3cc4ccccc4oc3=O)cs/c2=N/NC(=O)c2cc3ccccc3oc2=O)c1C`: in experiment [2], the inhibition at 100 µM was 70.4%. The inhibition at 0.1 µM in [19] stood at 53.9%.
`Cc1cccc2cc(C(c3c(O)c4ccccc4oc3=O)N3CCCCC3)c(Cl)nc12` (stereo not given) registered an IC50 in experiment [5] of 9.9 µM.
On to `CC1=CC[C@@H]2C(C)(C)[C@H](O)CC[C@@]2(C)[C@@H]1COc1ccc2ccc(=O)oc2c1` [FESELOL], for which the IC50 is 6.8 µM in experiment [20] and 8 µM in experiment [21].
Take `C/C(=C\COc1cc(O)cc2oc(=O)ccc12)C/C=C/C(C)(C)OO`: the IC50 in experiment [16] was 26.2 µM.
On to `COc1cc2ccc(=O)oc2cc1OC` [SCOPARONE], for which the EC50 (usually the concentration that produces a half-maximal response) in [22] was 9.11 mg/L (≈ 44.2 µM); in [1], 14.4 mg/L (≈ 69.7 µM); in experiment [5], 27.5 mg/L (≈ 133 µM); in [23], 21.4 mg/L (≈ 104 µM). In [24], the inhibition zone (IZ) was found to be 8 mm. Also, the half-inhibitory concentration (IC50) in [8], in experiment [9] and in experiment [10] was over 50 µM each time.
Turning to `CC(C)=CCC/C(C)=C/COc1ccc2ccc(=O)oc2c1`, the LC50 in experiment [25] is 30 µM. For the same compound, the IC50 in experiment [4] came to 17.1 µM.
Take `O=c1oc2ccccc2cc1-c1nnc2n1N=C(c1ccc(Cl)cc1)CS2`: in experiment [26], the IC50 was 2.86 µM.
